Tests used:
[1] = test system: inflammatory cytokines IL-6 and IL-12; test: Anti-asthma pharmacodynamic experiment: inflammatory cytokines in bronchoalveolar lavage fluid (ELISA); type: in vivo, female BALB/c mice; conditions: compared with the model group
[2] = test system: dry eye syndrome model New Zealand rabbits; test: Dry eye syndrome experiment (benzalkonium chloride model): tear secretion test with phenol red cotton threads; type: in vivo, male New Zealand White rabbits; conditions: compared with the model group
Method: Positive control drug: Fluorometholone Eye Drops (specification: 5 mL/5 mg; Santen Pharmaceutical (CHINA) Co., Ltd.; Lot No.: 1FM6625) was used as the positive control drug and stored at room temperature protected from light until use.
Thirty male New Zealand White rabbits (conventional grade) were prepared. Six rabbits were randomly selected as the blank control group, and the remaining animals were administered 0.1% benzalkonium chloride to the left eye twice daily (morning and evening) , 10 µL/animal each time. On day 6 of modeling, tear secretion was measured using phenol red cotton threads to determine whether the model was successfully established. […] During the administration, all animals except the blank control group were administered 10 µL of 0.1% benzalkonium chloride to the left eye once daily to maintain dry eye symptoms..
• Test time: D3, D7, D15; • Test animals: All animals were tested before grouping; all enrolled surviving animals were tested after administration; • Test method: Tear secretion was measured using phenol red cotton threads. The tear secretion test paper was folded and placed at the middle and outer 1/3 of the rabbit palpebral conjunctival sac for 1 min. The test paper was then removed, observed, and recorded for its wetting length. The test was repeated 3 times, and the values were averaged.
The normality and homogeneity of variance were tested by Levene's test. If there was no statistical significance (P > 0.05), one-way analysis of variance (ANOVA) was used for statistical analysis. If ANOVA was statistically significant (P ≤ 0.05), LSD test (parametric method) was used for comparative analysis. If the variance was heterogeneous (P ≤ 0.05), Kruskal-Wallis test was used. If the Kruskal-Wallis test was statistically significant (P ≤ 0.05), Dunnett's test (nonparametric method) was used for comparative analysis.

[3] = test system: inflammatory bowel disease model rats; test: Inflammatory bowel disease experiment (TNBS model): macroscopic injury score of the colon; type: in vivo; conditions: compared with the model group
Method in brief: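 Colitis in rats was induced by intrarectal TNBS 50 mg/kg (20 mg/mL in 50% ethanol) after 24 h fasting. Dosing began 1 h before induction, then daily for 5 days. On day 5 colon was scored macroscopically for adhesion, obstruction, wall thickening, congestion and necrosis, with ANOVA/Dunnett or Kruskal-Wallis/Mann-Whitney statistics.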

[4] = test system: psoriasis model mice; test: Psoriasis experiment (imiquimod model): skin lesion (PASI) score; type: in vivo; conditions: compared with the model group
Method: Positive control drug: Fluticasone Propionate Cream (specification: 0.05% × 15 g, Zhejiang Xianju Pharmaceutical Co. Ltd., Lot No. 211106), stored at room temperature protected from light until use.
Adult mice were selected, and the skin of 2 cm × 3 cm on the back of mice was locally depilated. The mice in the model group and drug administration group were applied with 62.5 mg of 5% imiquimod cream on their back for modeling, while the mice in the blank control group were applied with medical petroleum jelly on their back daily. The above procedures were performed once a day for 7 consecutive days.
The mice in the drug administration group were applied with the corresponding drugs on their backs daily at a dose of 0.2 g per mouse, while the blank control group and the model group were only applied with 0.2 g of the test sample drug matrix. One hour after drug administration, the drugs were wiped off with sterile cotton swabs, followed by the application of imiquimod. The above procedures were performed once a day for 7 consecutive days.
Referring to the clinical Psoriasis Area and Severity Index (PASI) scoring criteria, erythema, scaling, and thickness at the skin lesion sites were evaluated on a 0-4 scale on day 8 of modeling, and the total score was obtained by summing the three items.
• (1) Erythema: a score of 0 points indicates no erythema, a score of 1 point indicates erythema appearing light red, a score of 2 points indicates erythema appearing red, a score of 3 points indicates erythema appearing dark red, and a score of 4 points indicates erythema appearing extremely deep red; • (2) Scaling: a score of 0 points indicates no scaling on the surface, a score of 1 point indicates partial skin lesions covered with scaling, a score of 2 points indicates most skin lesions covered with scaling, a score of 3 points indicates almost all skin lesions covered with scaling in layers, and a score of 4 points indicates all skin lesions covered with scaling; • (3) Thickness: a score of 0 points indicates skin lesions flush with normal skin, a score of 1 point indicates skin lesions slightly elevated above normal skin surface, a score of 2 points indicates moderate elevation of skin lesions, a score of 3 points indicates thickened skin lesions with obvious elevation, and a score of 4 points indicates highly thickened skin lesions with prominent elevation.
Statistical analysis was performed using SPSS software, and the results were expressed as mean ± standard deviation. One-way ANOVA was used for intergroup comparisons. For data with homogeneous variance, the LSD test was used; for data with heterogeneous variance, the Dunnett-t test was used. A value of P < 0.05 was considered statistically significant.

[5] = test system: intraocular pressure of guinea pigs; test: Adverse reactions of continuous ocular administration: intraocular pressure; type: in vivo
Method in brief: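 Guinea pigs (300-350 g, both sexes) dosed bilaterally with 5 mg/5 mL ophthalmic suspensions, saline as blank; intraocular pressure measured before dosing and on days 7, 14, 21 and 28.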

SMILES	Effects on inflammatory cytokines in bronchoalveolar lavage fluid of mice [1]	tear secretion [2]	inflammatory response on the intestinal surface / intestinal symptoms [3]	PASI scores [4]	intraocular pressure after continuous ocular administration [5]
C[C@]12C=CC(=O)C=C1CC[C@H]1[C@@H]3C[C@H]4OC(c5ccc(CNC6COC(=O)C6)cc5)O[C@@]4(C(=O)CO)[C@@]3(C)C[C@H](O)[C@@]12F (stereo partly drawn) [Compound 21, (6aS,6bR,7S,8aS,8bS,11aR,12aS,12bS)-6b-Fluoro-7-hydroxy-8b-(2-hydroxyacetyl)-6a,8a-dimethyl-10-(4-(((5-oxotetrahydrofuran-3-yl)amino)methyl)phenyl)-1,2,6a,6b,7,8,8a,8b,11a,12,12a,12b-dodecahydro-4H-naphtho[2',1':4,5]indeno[1,2-d][1,3]dioxol-4-one]	pharmacological effects similar to those of compound 23	significantly increased the tear secretion	significantly alleviated the intestinal symptoms in inflammatory bowel disease model rats	significantly decreased PASI scores on day 7	no abnormal intraocular pressure observed
C[C@]12C=CC(=O)C=C1[C@@H](F)C[C@H]1[C@@H]3C[C@H]4OC(c5ccc(CSC6CCOC6=O)cc5)O[C@@]4(C(=O)SCC#N)[C@@]3(C)C[C@H](O)[C@@]12F (stereo partly drawn) [Compound 35, S-(Cyanomethyl) (2S,6aS,6bR,7S,8aS,8bS,11aR,12aS,12bS)-2,6b-difluoro-7-hydroxy-6a,8a-dimethyl-4-oxo-10-(4-( ((2-oxotetrahydrofuran-3-yl)thio)methyl)phenyl)-1,2,4,6a,6b,7,8,8a,11a,12,12a,12b-dodecahydro-8bH-naphtho[2',1':4,5]indeno[1,2-d][1,3]dioxole-8b-carbothioate]	pharmacological effects similar to those of compound 23	significantly increased the tear secretion	significantly alleviated the intestinal symptoms in inflammatory bowel disease model rats	significantly decreased PASI scores on day 7	no abnormal intraocular pressure observed
C[C@]12C=CC(=O)C=C1CC[C@H]1[C@@H]3C[C@H]4OC(c5ccc(COC6CCOC6=O)cc5)O[C@@]4(C(=O)CO)[C@@]3(C)C[C@H](O)[C@@]12F (stereo partly drawn) [Compound 16, (6aS,6bR,7S,8aS,8bS,11aR,12aS,12bS)-6b-Fluoro-7-hydroxy-8b-(2-hydroxyacetyl)-6a,8a-dimethyl-10-(4-(((2-oxotetrahydrofuran-3-yl)oxy)methyl)phenyl)-1,2,6a,6b,7,8,8a,8b,11a,12,12a,12b-do decahydro-4H-naphtho[2',1':4,5]indeno[1,2-d][1,3]dioxol-4-one]	pharmacological effects similar to those of compound 23	significantly increased the tear secretion	significantly alleviated the intestinal symptoms in inflammatory bowel disease model rats	significantly decreased PASI scores on day 7	no abnormal intraocular pressure observed
C[C@]12C=CC(=O)C=C1CC[C@H]1[C@@H]3C[C@H]4OC(c5ccc(CSC6CCOC6=O)cn5)O[C@@]4(C(=O)CO)[C@@]3(C)C[C@H](O)[C@@]12Cl (stereo partly drawn) [Compound 51, (6aS,6bR,7S,8aS,8bS,11aR,12aS,12bS)-6b-Chloro-7-hydroxy-8b-(2-hydroxyacetyl)-6a,8a-dimethyl-10-(5-(((2-oxotetrahydrofuran-3-yl)thio)methyl)pyridin-2-yl)-1,2,6a,6b,7,8,8a,8b,11a,12,12a,12 b-dodecahydro-4H-naphtho[2',1':4,5]indeno[1,2-d][1,3]dioxol-4-one]	pharmacological effects similar to those of compound 23	significantly increased the tear secretion	significantly alleviated the intestinal symptoms in inflammatory bowel disease model rats	significantly decreased PASI scores on day 7	no abnormal intraocular pressure observed

From EP4635969A1, “NOVEL GLUCOCORTICOID, METHOD FOR PREPARING SAME, AND USE THEREOF” (Tianjin Pharmaceutical Biotechnology Co., Ltd., priority 2022, dated 2024)
